This is an account of results in ChEMBL document CHEMBL5154675, “Design, Synthesis, and Biological Evaluation of 1-(Indolizin-3-yl)ethan-1-ones as CBP Bromodomain Inhibitors for the Treatment of Prostate Cancer” (J Med Chem, 2022).

A short description of data set [1]: Metabolic stability in rat liver microsomes assessed as parent compound remaining at 1 uM incubated for 45 mins in presence of NADPH by LC-MS/MS analysis. The settings on record: read-out: Stability. It counts as ADME, Microsome.
The nature of data set [2]: Metabolic stability in human liver microsomes assessed as parent compound remaining at 1 uM incubated for 45 mins in presence of NADPH by LC-MS/MS analysis. In kind it is ADME, Microsome. The settings on record: read-out: Stability.
A short description of data set [3]: Half life in rat liver microsomes at 1 uM incubated for 45 mins in presence of NADPH by LC-MS/MS analysis. In kind it is ADME, Microsome.
The nature of data set [4]: Half life in human liver microsomes at 1 uM incubated for 45 mins in presence of NADPH by LC-MS/MS analysis. In kind it is ADME, Microsome.
Data set [5] can be described thus: Intrinsic clearance in rat liver microsomes at 1 uM incubated for 45 mins in presence of NADPH by LC-MS/MS analysis. It counts as ADME, Microsome. The settings on record: read-out: CLH.
Data set [6] in a line: Intrinsic clearance in human liver microsomes at 1 uM incubated for 45 mins in presence of NADPH by LC-MS/MS analysis. It counts as ADME, Microsome. The settings on record: read-out: CLH.
Data set [7] can be described thus: Hepatic clearance in human liver microsomes at 1 uM incubated for 45 mins in presence of NADPH by LC-MS/MS analysis. It counts as ADME, Microsome. The settings on record: read-out: CLH.
Data set [8] can be described thus: Hepatic clearance in rat liver microsomes at 1 uM incubated for 45 mins in presence of NADPH by LC-MS/MS analysis. In kind it is ADME, Microsome.
Data set [9] is described as follows: Hepatic extraction ratio in human liver microsomes at 1 uM incubated for 45 mins in presence of NADPH by LC-MS/MS analysis. In kind it is ADME, Microsome. The conditions noted are these: read-out: ERH.
Data set [10] in a line: in vitro. The conditions noted are these: rat, liver microsomes.
Description: Hepatic extraction ratio in rat liver microsomes at 1 uM incubated for 45 mins in presence of NADPH by LC-MS/MS analysis
In data set [11] the test system is LNCaP C4-2B. Nature of the data set: Antiproliferative activity against human LNCaP C4-2B cells assessed as inhibition of cell growth by Celltiter-Glo assay. In kind it is functional, cell-based.
In data set [12] the target is T1, Bromodomain-containing protein 9 (Homo sapiens, UniProt Q9H8M2).
T1 sequence (Q9H8M2 whole entry): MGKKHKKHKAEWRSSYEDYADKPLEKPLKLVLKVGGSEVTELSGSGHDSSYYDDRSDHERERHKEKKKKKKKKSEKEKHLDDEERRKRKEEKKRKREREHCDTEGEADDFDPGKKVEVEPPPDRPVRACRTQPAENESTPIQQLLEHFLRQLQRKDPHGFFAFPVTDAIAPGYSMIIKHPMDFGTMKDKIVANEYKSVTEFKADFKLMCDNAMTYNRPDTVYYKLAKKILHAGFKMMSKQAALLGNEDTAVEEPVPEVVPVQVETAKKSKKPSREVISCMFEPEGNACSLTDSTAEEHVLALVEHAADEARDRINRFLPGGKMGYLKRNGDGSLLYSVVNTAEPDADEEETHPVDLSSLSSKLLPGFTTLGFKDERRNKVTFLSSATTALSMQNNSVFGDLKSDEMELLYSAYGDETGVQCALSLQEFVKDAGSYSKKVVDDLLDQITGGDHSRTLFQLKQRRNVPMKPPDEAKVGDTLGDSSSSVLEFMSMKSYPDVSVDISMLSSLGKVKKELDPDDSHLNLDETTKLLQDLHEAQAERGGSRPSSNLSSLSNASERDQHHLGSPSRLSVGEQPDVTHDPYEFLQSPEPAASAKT
Nature of the data set: Binding affinity to His6-tagged human BRD9 bromodomain (14 to 134 residues) expressed in Escherichia coli BL21 (DE3) assessed as dissociation constant by ITC analysis.

In data set [13] the target is T2, Bromodomain-containing protein 2 (Homo sapiens, UniProt P25440). Nature of the data set: Binding affinity to His6-tagged human BRD2 bromodomain-1 (77 to 194 residues) expressed in Escherichia coli BL21 (DE3) assessed as dissociation constant by ITC analysis.
Target sequence in this assay (P25440 whole entry, the tested form may be a part): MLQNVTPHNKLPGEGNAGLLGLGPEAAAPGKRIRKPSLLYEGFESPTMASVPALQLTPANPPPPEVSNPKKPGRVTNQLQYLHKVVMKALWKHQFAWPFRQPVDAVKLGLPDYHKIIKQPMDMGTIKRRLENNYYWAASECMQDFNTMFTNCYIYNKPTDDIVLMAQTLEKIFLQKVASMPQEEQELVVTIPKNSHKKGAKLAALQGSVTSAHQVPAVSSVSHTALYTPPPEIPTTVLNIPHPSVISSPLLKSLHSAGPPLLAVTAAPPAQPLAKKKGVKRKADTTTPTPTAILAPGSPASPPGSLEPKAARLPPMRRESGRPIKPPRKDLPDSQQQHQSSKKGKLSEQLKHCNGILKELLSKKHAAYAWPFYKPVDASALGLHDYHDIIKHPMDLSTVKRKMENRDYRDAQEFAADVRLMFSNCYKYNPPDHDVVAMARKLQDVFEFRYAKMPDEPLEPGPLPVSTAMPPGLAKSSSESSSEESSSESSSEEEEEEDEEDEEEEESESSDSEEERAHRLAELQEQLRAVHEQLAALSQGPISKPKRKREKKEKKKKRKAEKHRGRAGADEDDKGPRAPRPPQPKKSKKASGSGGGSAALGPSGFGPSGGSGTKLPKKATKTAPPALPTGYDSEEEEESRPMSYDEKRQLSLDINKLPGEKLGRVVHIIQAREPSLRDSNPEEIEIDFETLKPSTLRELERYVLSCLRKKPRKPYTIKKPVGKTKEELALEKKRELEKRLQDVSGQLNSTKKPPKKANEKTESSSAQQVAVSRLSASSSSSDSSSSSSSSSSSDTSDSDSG
Data set [14] concerns the target T3, Bromodomain-containing protein 4 (Homo sapiens, UniProt O60885). In words: Binding affinity to His6-tagged human BRD4 bromodomain-1 (44 to 168 residues) expressed in Escherichia coli BL21 (DE3) assessed as dissociation constant by ITC analysis.
Data set [15] addresses T4, Bromodomain testis-specific protein (Homo sapiens, UniProt Q58F21). In words: Binding affinity to His6-tagged human BRDT bromodomain-1 (21 to 137 residues) expressed in Escherichia coli BL21 (DE3) assessed as dissociation constant by ITC analysis.
The test system of data set [16] is LNCaP. In words: Antiproliferative activity against human LNCaP cells assessed as cell growth inhibition by Celltiter-Glo assay. In kind it is functional, cell-based.
The test system of data set [17] is CWR22R. In words: Antiproliferative activity against human 22Rv1 cells assessed as cell growth inhibition by Celltiter-Glo assay. It counts as functional, cell-based.
Data set [18] concerns the target CREB-binding protein (Homo sapiens, UniProt Q92793). The settings on record: dose 200.0 µM, time 30.0 min.
The target in data set [19] is Histone acetyltransferase p300 (Homo sapiens) (UniProt Q09472). The conditions noted are these: dose 200.0 µM, time 30.0 min.
Data set [20] has as its target PH-interacting protein (Homo sapiens) (UniProt Q8WWQ0). The settings on record: dose 200.0 µM, time 30.0 min.
Data set [21] addresses Chromatin remodeling regulator CECR2 (Homo sapiens) (UniProt Q9BXF3). The settings on record: dose 200.0 µM, time 30.0 min.
Data set [22] concerns the target Bromodomain adjacent to zinc finger domain protein 2B (Homo sapiens) (UniProt Q9UIF8). The conditions noted are these: dose 200.0 µM, time 30.0 min.
Data set [23] deals with Histone acetyltransferase KAT2B (Homo sapiens) (UniProt Q92831). The settings on record: dose 200.0 µM, time 30.0 min.
For data set [24], the target named is T3, Bromodomain-containing protein 4. The settings on record: dose 200.0 µM, time 30.0 min.
The target is the same in data set [25]. The conditions noted are these: dose 200.0 µM, time 30.0 min. The source holds these as a separate data set.
The target of data set [26] is T5, Bromodomain-containing protein 3 (Homo sapiens, UniProt Q15059). The conditions noted are these: dose 200.0 µM, time 30.0 min.
For data set [27], the target named is T5, Bromodomain-containing protein 3. The settings on record: dose 200.0 µM, time 30.0 min. The source holds these as a separate data set.
The target in data set [28] is T2, Bromodomain-containing protein 2. The settings on record: dose 200.0 µM, time 30.0 min.
Target sequence in this assay (P25440 whole entry, looked up, the tested form may be a part): as the sequence (P25440 whole entry, the tested form may be a part) above
For data set [29] the target is unchanged. The conditions noted are these: dose 200.0 µM, time 30.0 min. This is another data set of the same source.
Target sequence in this assay (P25440 whole entry, looked up, the tested form may be a part): as the sequence (P25440 whole entry, the tested form may be a part) above
Data set [30] has as its target T4, Bromodomain testis-specific protein. The settings on record: dose 200.0 µM, time 30.0 min.
Data set [31] has the same target. The settings on record: dose 200.0 µM, time 30.0 min. The source holds these as a separate data set.
For data set [32], the target named is SWI/SNF-related matrix-associated actin-dependent regulator of chromatin subfamily A member 2 (Homo sapiens) (UniProt P51531). The conditions noted are these: dose 200.0 µM, time 30.0 min.
Data set [33] has as its target T6, Bromodomain-containing protein 9 (Homo sapiens) (UniProt Q9H8M2).
T6 sequence (whole entry): T1 sequence (Q9H8M2 whole entry)
The conditions noted are these: dose 200.0 µM, time 30.0 min.

The nature of data set [34]: Apparent permeability across apical to basolateral side in human Caco-2 cells at 10 uM measured after 2 hrs by LC-MS/MS analysis. It counts as ADME, cell-based.
Data set [35] in a line: Apparent permeability across basolateral to apical side in human Caco-2 cells at 10 uM measured after 2 hrs by LC-MS/MS analysis. It counts as ADME, cell-based.
A short description of data set [36]: Apparent permeability across apical to basolateral side in human Caco-2 cells assessed as drug recovery at 10 uM measured after 2 hrs by LC-MS/MS analysis. The settings on record: read-out: Drug recovery. In kind it is ADME, cell-based.
Data set [37] can be described thus: Apparent permeability across basolateral to apical side in human Caco-2 cells assessed as drug recovery at 10 uM measured after 2 hrs by LC-MS/MS analysis. In kind it is ADME, cell-based. The settings on record: read-out: Drug recovery.

T5 sequence (Q15059 2-726 limits assumed): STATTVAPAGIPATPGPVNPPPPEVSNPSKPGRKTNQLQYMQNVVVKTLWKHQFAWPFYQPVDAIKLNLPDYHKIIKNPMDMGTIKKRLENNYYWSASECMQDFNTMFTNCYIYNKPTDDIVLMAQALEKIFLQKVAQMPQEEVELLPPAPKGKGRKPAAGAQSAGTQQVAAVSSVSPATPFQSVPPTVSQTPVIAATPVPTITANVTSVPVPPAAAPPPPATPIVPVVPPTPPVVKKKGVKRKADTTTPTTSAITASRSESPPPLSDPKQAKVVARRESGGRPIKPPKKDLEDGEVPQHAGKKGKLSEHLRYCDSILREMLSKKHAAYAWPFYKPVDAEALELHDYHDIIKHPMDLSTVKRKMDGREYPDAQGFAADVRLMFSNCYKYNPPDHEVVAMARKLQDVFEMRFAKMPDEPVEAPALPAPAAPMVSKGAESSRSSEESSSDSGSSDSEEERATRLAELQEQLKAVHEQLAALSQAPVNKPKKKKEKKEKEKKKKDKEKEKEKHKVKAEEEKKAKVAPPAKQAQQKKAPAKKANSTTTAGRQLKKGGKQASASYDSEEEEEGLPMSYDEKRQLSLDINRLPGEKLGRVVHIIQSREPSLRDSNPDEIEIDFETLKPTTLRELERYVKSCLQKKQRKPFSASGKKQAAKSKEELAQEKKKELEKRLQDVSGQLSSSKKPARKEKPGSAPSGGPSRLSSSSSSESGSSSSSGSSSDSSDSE
Sequence of SWI/SNF-related matrix-associated actin-dependent regulator of chromatin subfamily A member 2 (Homo sapiens) (P51531 whole entry): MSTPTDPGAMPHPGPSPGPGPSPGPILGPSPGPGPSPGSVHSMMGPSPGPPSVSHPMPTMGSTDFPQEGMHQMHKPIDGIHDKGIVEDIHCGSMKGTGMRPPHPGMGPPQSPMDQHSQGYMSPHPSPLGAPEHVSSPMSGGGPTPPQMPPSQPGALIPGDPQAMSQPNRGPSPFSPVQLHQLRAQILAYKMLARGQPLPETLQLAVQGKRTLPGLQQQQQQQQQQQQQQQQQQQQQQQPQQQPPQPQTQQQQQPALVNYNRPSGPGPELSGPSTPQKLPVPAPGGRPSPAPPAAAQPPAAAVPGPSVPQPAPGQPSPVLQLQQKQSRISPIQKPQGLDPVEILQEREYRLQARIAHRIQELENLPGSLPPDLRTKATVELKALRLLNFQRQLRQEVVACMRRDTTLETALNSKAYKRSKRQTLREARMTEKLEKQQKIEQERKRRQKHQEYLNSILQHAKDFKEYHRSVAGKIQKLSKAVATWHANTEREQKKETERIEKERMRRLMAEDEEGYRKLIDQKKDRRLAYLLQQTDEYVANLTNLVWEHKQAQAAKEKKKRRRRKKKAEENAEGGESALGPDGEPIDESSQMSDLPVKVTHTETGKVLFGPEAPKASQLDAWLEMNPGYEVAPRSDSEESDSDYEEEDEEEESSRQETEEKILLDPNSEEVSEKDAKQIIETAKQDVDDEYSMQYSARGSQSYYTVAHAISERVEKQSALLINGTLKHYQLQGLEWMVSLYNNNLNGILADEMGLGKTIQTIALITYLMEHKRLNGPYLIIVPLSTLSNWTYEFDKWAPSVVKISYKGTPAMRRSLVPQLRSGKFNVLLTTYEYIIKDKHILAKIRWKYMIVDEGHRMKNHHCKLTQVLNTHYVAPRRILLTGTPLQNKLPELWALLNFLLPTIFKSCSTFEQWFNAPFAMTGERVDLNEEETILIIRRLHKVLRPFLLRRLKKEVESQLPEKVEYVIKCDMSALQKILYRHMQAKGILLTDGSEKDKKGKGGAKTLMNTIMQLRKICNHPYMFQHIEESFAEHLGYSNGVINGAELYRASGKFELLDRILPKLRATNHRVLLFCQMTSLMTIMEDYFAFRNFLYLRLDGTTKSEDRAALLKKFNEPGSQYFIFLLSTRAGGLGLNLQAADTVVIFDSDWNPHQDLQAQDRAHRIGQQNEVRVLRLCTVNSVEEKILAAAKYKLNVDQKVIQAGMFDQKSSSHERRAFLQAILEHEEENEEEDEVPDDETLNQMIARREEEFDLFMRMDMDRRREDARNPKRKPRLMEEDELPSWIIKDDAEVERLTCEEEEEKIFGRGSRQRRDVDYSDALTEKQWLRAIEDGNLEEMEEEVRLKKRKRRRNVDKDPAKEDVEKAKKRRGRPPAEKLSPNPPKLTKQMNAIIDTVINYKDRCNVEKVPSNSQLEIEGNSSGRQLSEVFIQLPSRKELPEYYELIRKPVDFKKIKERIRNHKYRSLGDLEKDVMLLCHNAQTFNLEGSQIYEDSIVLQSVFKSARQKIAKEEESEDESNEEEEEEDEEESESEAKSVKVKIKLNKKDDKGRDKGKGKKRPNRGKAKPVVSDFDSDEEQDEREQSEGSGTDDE
Sequence of Histone acetyltransferase KAT2B (Homo sapiens) (Q92831 whole entry, looked up): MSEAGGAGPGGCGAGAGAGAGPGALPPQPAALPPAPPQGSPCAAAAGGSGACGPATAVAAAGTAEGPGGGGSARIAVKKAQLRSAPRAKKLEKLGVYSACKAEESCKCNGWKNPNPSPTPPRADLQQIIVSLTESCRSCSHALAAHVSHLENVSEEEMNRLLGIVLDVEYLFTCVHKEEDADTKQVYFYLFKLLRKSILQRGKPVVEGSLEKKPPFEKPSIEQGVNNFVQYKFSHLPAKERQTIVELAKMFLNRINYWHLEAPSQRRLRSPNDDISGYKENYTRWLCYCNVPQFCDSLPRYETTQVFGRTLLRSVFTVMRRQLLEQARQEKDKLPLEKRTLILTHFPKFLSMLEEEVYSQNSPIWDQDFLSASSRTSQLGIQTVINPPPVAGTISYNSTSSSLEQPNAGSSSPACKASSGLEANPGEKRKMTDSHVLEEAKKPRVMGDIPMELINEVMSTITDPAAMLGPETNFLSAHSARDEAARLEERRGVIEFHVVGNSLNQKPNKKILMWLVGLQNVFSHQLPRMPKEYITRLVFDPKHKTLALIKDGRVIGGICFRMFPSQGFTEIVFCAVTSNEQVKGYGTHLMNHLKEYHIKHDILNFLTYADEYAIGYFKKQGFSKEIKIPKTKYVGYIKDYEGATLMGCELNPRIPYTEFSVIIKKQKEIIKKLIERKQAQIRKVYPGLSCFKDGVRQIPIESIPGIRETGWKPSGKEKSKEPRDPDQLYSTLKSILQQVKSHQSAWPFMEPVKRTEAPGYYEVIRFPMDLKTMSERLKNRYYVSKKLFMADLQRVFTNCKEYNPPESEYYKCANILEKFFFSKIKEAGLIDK

In the case of `Cc1ncc2n1-c1ccc(Cl)cc1C(c1ccccc1F)=NC2` [MIDAZOLAM], the remaining at 0.75 h, 1 µM in data set [1] was found to be 4.5%; in data set [2], 0.55%. Besides, the half-life at 1 µM was 1.85 min in data set [3] and 3.07 min in data set [4]. Besides, the CLint scaled at 1 µM is 750 mL/min/kg in data set [5], 452 mL/min/kg in data set [6] and 19.9 mL/min/kg in data set [7]. The CLhep predicted at 1 µM in data set [8] is 53 mL/min/kg. For the same molecule, the values for the hepatic extraction ratio at 0.75 h, 1 µM in data set [9] and in data set [10] were 0.962 and 0.961, respectively.

Take `CO[C@H]1CC[C@H](n2c([C@@H]3CCCC(=O)N3c3ccc(F)c(F)c3)nc3cc(-c4c(C)noc4C)ccc32)CC1` [INOBRODIB]: the IC50 is 1.65 µM in data set [11], 0.06 µM in data set [16] and 0.42 µM in data set [17]. Further, the Kd in data set [12] is 2.61 µM; in data set [13] it was 0.39 µM; in data set [14], 0.36 µM; in data set [15] it was 1.12 µM. The ΔTm was 17.5 °C in [18]; 17.5 °C in [19]; 0 °C in [20]; 0 °C in data set [21]; -0.5 °C in [22]; -0.5 °C in data set [23]. The thermal shift (ΔTm) came out at 6.3 °C in [24]; 1.3 °C in data set [25]; 5.5 °C in [26]; 2 °C in [27]; 3.8 °C in data set [28]; 2.3 °C in data set [29]. Besides, the ΔTm in [30] turned out to be 2.5 °C; in data set [31], 0.5 °C; in [32] it was 0 °C; in data set [33], 4.3 °C.

For `CC(C)NCC(O)COc1cccc2ccccc12` (configuration not stated) [PROPRANOLOL], in [34], the Papp A→B at 2 h, 10 µM worked out at 28.3 ×10⁻⁶ cm/s. Also, the Papp B→A at 2 h, 10 µM in data set [35] amounted to 18.9 ×10⁻⁶ cm/s. Besides, the recovery at 2 h, 10 µM came to 85% in data set [36] and 90.7% in [37].
